# Residues, ends and D or L forms follow the SMILES beside them. *: point of attachment. Cbz = O=C(OCc1ccccc1)*
# Experiments:
# [1] = test system: Notch 1 activation in MDA-MB-231 TNBC cells; experiment: Western blot of NICD and HES1; assay type: cell-based; settings: vs vehicle treated controls
# [2] = test system: MDA-MB-231 TNBC cells; experiment: cell viability assay; assay type: cell-based; settings: 1/20th of IC50 of DOX alone
# Description: Synergistic effects of combinations were calculated via isobologram analysis.
# [3] = test system: CPEB1 knockdown TCCSUP cells; experiment: cell death in CPEB1 siRNA knockdown cells; assay type: cell-based
# From the text: To analyze whether ASR488 treatment can induce p27 mediated cell death in CPEB1 knockdown bladder cancer cells, we knocked down CPEB1 with SiRNA in TCCSUP cells. (FIG. 11A) ASR488 treatment was unable to restore CPEB1 expression in CPEB1 knockdown cells. Moreover, P27 expression corresponded with CPEB1 expression pattern in the Knockdown cells.
# [4] = test system: TCCSUP cells; experiment: MTT cell viability assay; assay type: cell-based
# Description: (§1) Cell culture and viability assay. […] Cell lines were maintained in Eagle's Minimum Essential Medium at 37° C. and 5% CO2. […] TCCSUP and HT1376 cells were treated with varying concentrations of ASR488 (0.2-12.5 μM) for 24, 48, and 72 h.
# [5] = test system: HT1376 cells; experiment: MTT cell viability assay; assay type: cell-based
# Description: as §1
# [6] = target: CPEB1 (Homo sapiens, UniProt Q9BZB8); experiment: scanning fluorimetry with purified CPEB1 protein; assay type: binding
# CPEB1, sequence (Q9BZB8 whole entry): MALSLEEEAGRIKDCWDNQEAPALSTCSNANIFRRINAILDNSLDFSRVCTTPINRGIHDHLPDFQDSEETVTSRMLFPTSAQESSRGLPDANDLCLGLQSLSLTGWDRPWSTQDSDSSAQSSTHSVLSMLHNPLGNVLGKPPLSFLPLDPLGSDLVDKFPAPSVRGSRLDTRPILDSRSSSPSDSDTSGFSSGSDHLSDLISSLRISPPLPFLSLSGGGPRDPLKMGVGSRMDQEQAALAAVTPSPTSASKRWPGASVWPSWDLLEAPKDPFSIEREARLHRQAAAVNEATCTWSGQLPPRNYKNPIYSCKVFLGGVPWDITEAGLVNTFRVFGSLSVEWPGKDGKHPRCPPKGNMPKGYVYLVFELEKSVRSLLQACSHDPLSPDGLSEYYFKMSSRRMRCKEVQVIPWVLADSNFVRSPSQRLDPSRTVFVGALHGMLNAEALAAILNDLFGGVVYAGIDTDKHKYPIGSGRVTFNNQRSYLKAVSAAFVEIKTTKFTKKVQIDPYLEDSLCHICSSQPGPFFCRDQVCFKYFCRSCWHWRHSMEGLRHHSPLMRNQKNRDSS
# From the text: (FIG. 9B) ASR488 treatment induces p53 independent p27 upregulation in Bladder Cancer cells. (FIG. 9C) The result is GO/G1 cell cycle arrest in ASR488 treated Bladder Cancer Cells. (FIG. 9D) p27 upregulation is due to CPEB1 induction by overexpressing CPEB1 in TCCSUP cells.
# [7] = test system: normal BCa cells; experiment: toxicity to normal cells; assay type: cell-based
# [8] = test system: TCCSUP cells; experiment: RNA-seq differential gene expression analysis; assay type: cell-based
# From the text: RNA isolation, cDNA library construction, and DNA sequencing. TCCSUP cells treated with vehicle (DMSO) or ASR488 were subjected to RNA isolation using TRIzol® (Invitrogen; Thermo Fisher Scientific, Inc., Waltham, Mass., USA) according to the manufacturer's protocol. Nano Photometer® spectrophotometer (Implen, Inc., Westlake Village, Calif., USA) was used to measure the RNA concentration and purity of the samples. A cDNA library was then constructed using an NEB Next® Ultra™ RNA Library Prep kit for Illumina® (New England Biolabs, Inc., Ipswich, Mass., USA) by Novogene Bioinformatics Technologies Co. Ltd. (Beijing, China) following the manufacturer's protocols. Subsequently, polymerase chain reaction (PCR) was, Universal PCR primers, and Index (X) Primer for double-stranded cDNA amplification. The PCR products generated for PCR performed using Phusion High Fidelity DNA polymerase were purified using the AMPure XP system, and Agilent Bioanalyzer 2100 system was used to analyze the library quality. The cDNA library was sequenced using an Illumina Hiseq 2000/2500 platform and 100 bp/50 bp single-end reads were generated.
# Data Analysis. Bioinformatics analysis was performed using a combination of programs including STAR, HTseq, Cufflink, and our wrapped scripts. Tophat program was used to parse the alignments and DESeq2/edgeR was utilized to ascertain differential expressions. To determine GO and KEGG enrichment Cluster Profiler was used.
# For DESeq2 with biological replicates: DESeq2 R package (2_1.6.3) was used to analyze differential expression between the ASR488 treated and control groups (two biological replicates per condition). The p-values obtained from the analysis were adjusted using the Benjamini and Hochberg's approach so that the false discovery rate (FDR) can be controlled. The genes having adjusted p-value <0.05 were assigned as differentially expressed.
# For edge R without biological replicates: EdgeR program package (3.16.5) was used to adjust the read counts for each sequenced library before differential gene expression analysis, through one scaling normalized factor. The p-values were adjusted using the Benjamini and Hochberg method. […] The Venn diagrams were prepared using the function Venn diagram in R based on the gene list for different groups.
# [9] = test system: TCCSUP cells; experiment: Annexin V-FITC/PI apoptosis flow cytometry; assay type: cell-based; settings: 24 h treatment
# Description: (§2) Detection of apoptosis by flow cytometry and immunoblotting. Annexin V-fluorescein isothiocyanate (FITC) against propidium iodide (PI) assay (FITC Annexin V Apoptosis Detection Kit I, BD Pharminogen, San Diego, Calif., USA) was used for detecting apoptosis as described previously. Total protein extracts from TCCSUP cells were prepared with the Mammalian Protein Extraction Reagent (Thermo Scientific, Rockford, Ill., USA) according to the manufacturer's instructions. Western blotting was performed using specific antibodies against Cleaved PARP (Cat #5625), BAX (Cat #5023) (Cell signaling Technology), and β-actin (Santa Cruz Biotechnologies, Dallas, Tex., USA). The positive bands were detected using enhanced chemiluminescence.
# [10] = test system: HT1376 cells; experiment: Annexin V-FITC/PI apoptosis flow cytometry; assay type: cell-based; settings: HT1376, 24 h treatment
# Description: as §2
# [11] = test system: TCCSUP cells; experiment: qRT-PCR of top upregulated genes; assay type: cell-based; settings: vs vehicle (DMSO)
# From the text: The blue dots represent the genes that are without any significant diversity. […] The sum of the numbers in each large circle are the total number of genes in ASR488-treated or vehicle-treated TCCSUP cells, and the common genes among the samples are represented in the overlapping part.
# [12] = test system: ubiquitin in ALDH+ cells; experiment: ubiquitin expression; assay type: cell-based
# From the text: Commercially available positive and negative controls were used for these experiments.
smiles,measurement,setting,value
"COc1cccc2c1C(=O)c1c(O)c3c(c(O)c1C2=O)C[C@@](O)(C(=O)CO)C[C@@H]3O[C@H]1C[C@H](N)[C@H](O)[C@H](C)O1 [DOX, Doxorubicin, reference compound]",Notch 1 activation (NICD and HES 1 levels),[1],induction of Notch 1 activation
same,growth inhibition alone,[2],did not inhibit the growth
CC1=C(CO)C(=O)O[C@@H]([C@@H](C)[C@H]2CC[C@H]3[C@@H]4C[C@H]5O[C@]56[C@@H](OC(=O)c5cccs5)C=CC(=O)[C@]6(C)[C@H]4CC[C@]23C)C1 [ASR488],cell death in CPEB1 knockdown cells,[3],did not induced cell death
same,IC50,[4]; 24 h,800 nM
same,IC50,[4]; 48 h,480 nM
same,IC50,[4]; 72 h,450 nM
same,IC50,"[5]; HT1376, 24 h",1280 nM
same,IC50,"[5]; HT1376, 48 h",750 nM
same,IC50,"[5]; HT1376, 72 h",850 nM
same,change of Tm of bound CPEB1,[6],9 °C
same,toxicity to normal cells,[7],non-toxic
same,Log2 (fold-change) ACTG2,"[8]; gene ACTG2, treated TCCSUP cells",3.0293
same,Log2 (fold-change) BBOX1,"[8]; gene BBOX1, treated TCCSUP cells",−2.2384
same,Log2 (fold-change) CMPK2,"[8]; gene CMPK2, treated TCCSUP cells",−1.8470
same,Log2 (fold-change) CPEB1,"[8]; gene CPEB1, treated TCCSUP cells",6.3347
same,Log2 (fold-change) CYP4F11,"[8]; gene CYP4F11, treated TCCSUP cells",8.3568
same,Log2 (fold-change) DDX60,"[8]; gene DDX60, treated TCCSUP cells",−2.5069
same,Log2 (fold-change) FOS,"[8]; gene FOS, treated TCCSUP cells",−1.9465
same,Log2 (fold-change) GBP4,"[8]; gene GBP4, treated TCCSUP cells",−2.2704
same,Log2 (fold-change) GNGT2,"[8]; gene GNGT2, treated TCCSUP cells",2.5802
same,Log2 (fold-change) HSPA6,"[8]; gene HSPA6, treated TCCSUP cells",3.5985
same,Log2 (fold-change) IFI44L,"[8]; gene IFI44L, treated TCCSUP cells",−1.9791
same,Log2 (fold-change) IFIT2,"[8]; gene IFIT2, treated TCCSUP cells",−1.8473
same,Log2 (fold-change) IL11,"[8]; gene IL11, treated TCCSUP cells",2.9265
same,Log2 (fold-change) MAP1A,"[8]; gene MAP1A, treated TCCSUP cells",2.1205
same,Log2 (fold-change) OASL,"[8]; gene OASL, treated TCCSUP cells",−1.9737
same,Log2 (fold-change) RSAD2,"[8]; gene RSAD2, treated TCCSUP cells",−2.2235
same,Log2 (fold-change) SFN,"[8]; gene SFN, treated TCCSUP cells",3.7239
same,Log2 (fold-change) SPHK1,"[8]; gene SPHK1, treated TCCSUP cells",4.6389
same,Log2 (fold-change) STEAP4,"[8]; gene STEAP4, treated TCCSUP cells",−1.8141
same,Log2 (fold-change) TAGLN,"[8]; gene TAGLN, treated TCCSUP cells",2.3661
same,apoptosis,[9],30.5%
same,apoptosis,[10],23.2%
same,CPEB1 upregulation by qRT-PCR,[11],36 fold
same,CYP4F11 upregulation by qRT-PCR,[11],15.8 fold
same,IL11 upregulation by qRT-PCR,[11],30 fold
same,SFN upregulation by qRT-PCR,[11],20.12 fold
"CC(C)C[C@@H](C=O)NC(=O)[C@H](CC(C)C)NC(=O)[C@H](CC(C)C)NC(=O)OCc1ccccc1 [MG-132, reference compound] (Cbz-Leu-Leu-Leu-aldehyde)",ubiquitin expression,[12],higher level of ubiquitin

# Reference: patent US20230103142A1, “SMALL MOLECULE REGULATORS OF NOTCH1 AND USES THEREOF” (THE PENN STATE RESEARCH FOUNDATION, priority 2020, published 2023)
